Assay results as given in patent US20130240456A1, “DEVICE AND METHOD FOR LABEL-FREE SEPARATION OF MATERIAL USING MAGNETIC FIELD” (THE GOVERNING COUNCIL OF THE UNIVERSITY OF TORONTO, priority 2012, published 2013).

Legend:
myoglobin [1] = molecular target: myoglobin (Mus musculus, UniProt P04247); settings: 2.5 mM NaNO2, ratio of absorbance 635 nm/525 nm
Description: (§1) UV-vis measurements were made in cells lysed with NP40 Lysis Buffer, for 30 min on ice, with cell debris spun down at 13000 rpm for 10 min at 4° C. […] ND-1000 Nanodrop spectrophotometer (from Nanodrop Technologies, Inc., Wilmington, Del., USA) was used to collect absorption spectra from 200-700 nm.

myoglobin [2] = molecular target: myoglobin (Rattus norvegicus, UniProt Q9QZ76)
Description: as §1

neonatal rat CM [3] = settings: horizontal device study
Description: Cell viability was determined immediately after treatment. In addition, the cells were cultivated in 3D for 7 days as described below.
Live/dead staining was performed by incubating the cells or constructs in a solution of carboxyfluorescein diacetate-succinimidyl ester (CFDA-SE, 10 μM, from Molecular Probes) and propidium iodide (PI, 2.5 μg/mL, from Molecular Probes) for 30-45 minutes at 37° C., according to the manufacturer's protocol (from Molecular Probes, Burlington, Canada). The cells were imaged using a fluorescent microscope (Leica DMIRE2, from Wetzlar, Germany). […] Following treatment, the cells were washed in HBSS, and incubated for 5 hrs in 37° C./5% CO2 incubator. Non-viable cells with compromised cell membranes could be identified by red fluorescence due to binding of PI to their nuclei, while viable cells converted CFDA-SE to the green fluorescent dye […] by esterase-mediated cleavage.
Live/dead staining was performed by incubating the cells or constructs in a solution of carboxyfluorescein diacetate-succinimidyl ester (CFDA-SE, 10 μM, from Molecular Probes) and propidium iodide (PI, 2.5 μg/mL, from Molecular Probes) for 30-45 minutes at 37° C., according to the manufacturer's protocol (from Molecular Probes, Burlington, Canada). The cells were imaged using a fluorescent microscope (Leica DMIRE2, from Wetzlar, Germany). […]

neonatal rat CM [4] = settings: constructs of treated and control cells, no significant differences
Description: Contractile properties of CMs were measured by field stimulation in an electrical stimulation chamber consisting of two parallel carbon electrodes spaced 1 cm apart as described in [24]. Stimulation was provided by an external electric stimulator (Grass s88x). Using monophasic pulses of 2 ms duration and frequency of 1 pulse per second, the excitation threshold (minimum voltage at which synchronous contractions of 75% of the tissue in the field of view can be observed) was first determined. Then the maximum capture rate (maximum beating frequency) was determined at 200% of the determined excitation threshold voltage.

adult mouse CM = settings: 2.5 mM NaNO2, versus untreated, unseparated control
Description: Adult mouse CMs were isolated and suspended in Kraft Bruhe (KB) solution at 4° C. The KB solution consisted of 120 mM K-glutamate, 10 mM KCl, 10 mM KH2PO4, 2 mM MgSO4.7H2O, 10 mM Taurine, 5 mM Creatine, 10 mM HEPES, 10 mM Glucose, 0.5 mM EGTA, 0.10% Bovine Serum Albumin (BSA) and a final pH of 7.3 adjusted with KOH. The adult mouse CMs in KB solution were then split into three groups. Each of these three KB solutions containing adult mouse CMs was then further split into four groups; in total, 12 groups of adult mouse CMs in KB solution were maintained at 4° C. and allowed to settle to the bottom of Eppendorf tubes.
The Eppendorf containing KB Solution and adult mouse CMs was left untouched. The other three Eppendorf tubes had the KB solution removed. […] The four Eppendorf tubes were then returned to 4° C. environment to allow the cells settle.
The other three Eppendorf tubes containing adult mouse CMs in the three other solutions were left at room temperature while the device was running.
At the end of the sorting process, each of the Eppendorf tubes that had been sitting at room temperature were equally split into 24-well plate wells. The sorted run was emptied into one well. An equal volume of trypan blue was added to each well. After a minute, 1 mL of either KB or HBSS and 30% FBS was added to each of the wells depending on the group. […]

Sequence of myoglobin (Rattus norvegicus, UniProt Q9QZ76) (Q9QZ76 whole entry): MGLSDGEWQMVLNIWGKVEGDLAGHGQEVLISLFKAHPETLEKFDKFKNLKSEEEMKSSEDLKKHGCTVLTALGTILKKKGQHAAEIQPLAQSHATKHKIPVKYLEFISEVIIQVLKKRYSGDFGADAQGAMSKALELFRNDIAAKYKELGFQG
Sequence of myoglobin (Mus musculus, UniProt P04247) (P04247 whole entry): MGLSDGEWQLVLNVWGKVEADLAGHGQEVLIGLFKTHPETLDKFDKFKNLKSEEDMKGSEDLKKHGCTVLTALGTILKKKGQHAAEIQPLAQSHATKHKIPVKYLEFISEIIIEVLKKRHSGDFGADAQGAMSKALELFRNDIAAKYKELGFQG

O=NO [NaNO2, sodium nitrite]
time of maximum metmyoglobin induction after nitrite was introduced (myoglobin [1]): about 45 min | conversion of Mb to metMb (myoglobin [2]; 50 mM NaNO2, 30 min, referencing to the 1 hr time point): 92±3.5% | time at which metMb induction reached the equilibrium value (myoglobin [2]; 50 mM NaNO2, transient study): 30 min | semi-quantitative fold conversion to metMb (myoglobin [2]; 50 mM NaNO2, transient study, stabilized value): about 10 times the initial metMb amount | viability of CMs after treatment with NaNO2 (FIGS. 23A and 23B) (neonatal rat CM [3]): unaffected | excitation threshold (ET) (neonatal rat CM [4]): about 4.5±1.3 V/cm | maximum capture rate (MCR) (neonatal rat CM [4]): about 8.3±1.0 pps | viability of adult mouse CM after separation and subsequent culture for 24 hr (adult mouse CM): not compromised
